Measurements reported in the supplement of paper PMC10307832.

Legend:
Test in all cases: relative viability (nuclei count vs DMSO), 5 days (fraction); higher = more cells survive
[1] = compound: CC1=CC(=CC=C1)NC2=NC(=CS2)C3=CC=NC=C3 + C[C@]1(O)C[C@@H](c2nc(-c3ccc4ccc(-c5ccccc5)nc4c3)c3c(N)nccn32)C1 [Linsitinib] (partner 1 µM)
In short: (§1)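 Relative viability divides the nuclei count in treated wells by that in vehicle wells. Lung cancer cell lines were seeded in 1536-well plates, dosed by pin tool the next day, and fixed and stained after 5 days in one step with final 0.05% Triton X-100, 1% formaldehyde and 1 ug/ml Hoechst. Dosing was a single drug or a fixed anchor-drug dose plus five library-drug doses (not always all listed) in √10 steps, and values are medians of duplicate plates imaged at 4×.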

[2] = compound: CC1=CC(=CC=C1)NC2=NC(=CS2)C3=CC=NC=C3 + O=C(CCCCCCC(=O)Nc1ccccc1)NO [Vorinostat] (partner 1 µM)
In short: as §1

[3] = compound: CC1=CC(=CC=C1)NC2=NC(=CS2)C3=CC=NC=C3 + N=C(N)NC(=N)NCCc1ccccc1 [Phenformin] (partner 250 µM)
In short: as §1

Masitinib + Alpelisib = compound: Cc1ccc(NC(=O)c2ccc(CN3CCN(C)CC3)cc2)cc1Nc1nc(-c2cccnc2)cs1 [Masitinib] + Cc1nc(NC(=O)N2CCC[C@H]2C(N)=O)sc1-c1ccnc(C(C)(C)C(F)(F)F)c1 [Alpelisib] (partner 2 µM)
In short: as §1

## UMC-11
[1]; first compound 0.08 µM
  relative viability: 0.983
[1]; first compound 0.253 µM
  relative viability: 1
[1]; first compound 0.8 µM
  relative viability: 1.01
[1]; first compound 2.53 µM
  relative viability: 0.977
[1]; first compound 8 µM
  relative viability: 1.05
[2]; first compound 0.08 µM
  relative viability: 0.356
[2]; first compound 0.253 µM
  relative viability: 0.32
[2]; first compound 0.8 µM
  relative viability: 0.354
[2]; first compound 2.53 µM
  relative viability: 0.34
[2]; first compound 8 µM
  relative viability: 0.487
[3]; first compound 0.08 µM
  relative viability: 0.314
[3]; first compound 0.253 µM
  relative viability: 0.298
[3]; first compound 0.8 µM
  relative viability: 0.32
[3]; first compound 2.53 µM
  relative viability: 0.307
[3]; first compound 8 µM
  relative viability: 0.349
Masitinib + Alpelisib; first compound 0.01 µM
  relative viability: 0.899
Masitinib + Alpelisib; first compound 0.03162 µM
  relative viability: 0.713
Masitinib + Alpelisib; first compound 0.1 µM
  relative viability: 1.12
Masitinib + Alpelisib; first compound 0.3162 µM
  relative viability: 1.17
Masitinib + Alpelisib; first compound 1 µM
  relative viability: 1.2
